± gives the standard deviation of the averaged measurements.
Assays:
CANERTINIB = compound: C=CC(=O)Nc1cc2c(Nc3ccc(F)c(Cl)c3)ncnc2cc1OCCCN1CCOCC1 [CANERTINIB]; assay: surviving fraction relative to DMSO-only wells; higher = less growth inhibition; conditions: exposure time: 5 days
Outline: (§1)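 Viability was determined by CellTiter-Glo luminescence, expressed as surviving fraction normalised to the median of DMSO-only wells. The cells were log-phase tumour cell lines seeded at 250–500 per well in 384-well plates and, after 24 hours, exposed continuously for five days to inhibitors at 0.5, 1, 5, 10, 50, 100, 500 and 1000 nM. Three screens per line were run, keeping only lines with replicate Pearson r >0.7 and median Z' >0.3.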

MDV3100 = compound: CNC(=O)c1ccc(N2C(=S)N(c3ccc(C#N)c(C(F)(F)F)c3)C(=O)C2(C)C)cc1F [MDV3100]; assay: as above; conditions: exposure time: 5 days
Outline: as §1

| Test System | surviving fraction (CANERTINIB; 0.5 nM) | surviving fraction (CANERTINIB; 1 nM) | surviving fraction (CANERTINIB; 5 nM) | surviving fraction (CANERTINIB; 10 nM) | surviving fraction (CANERTINIB; 50 nM) | surviving fraction (CANERTINIB; 100 nM) | surviving fraction (CANERTINIB; 500 nM) | surviving fraction (CANERTINIB; 1000 nM) | surviving fraction (MDV3100; 0.5 nM) | surviving fraction (MDV3100; 1 nM) | surviving fraction (MDV3100; 5 nM) | surviving fraction (MDV3100; 10 nM) | surviving fraction (MDV3100; 50 nM) | surviving fraction (MDV3100; 100 nM) | surviving fraction (MDV3100; 500 nM) | surviving fraction (MDV3100; 1000 nM) |
| --- | --- | --- | --- | --- | --- | --- | --- | --- | --- | --- | --- | --- | --- | --- | --- | --- |
| S68 BREAST | 0.642 ± 0.11 | 0.813 ± 0.21 | 0.748 ± 0.3 | 0.793 ± 0.04 | 1.04 ± 0.22 | 1.01 ± 0.12 | 0.636 ± 0.091 | 0.425 ± 0.12 | 0.974 ± 0.2 | 1.04 ± 0.035 | 1.08 ± 0.11 | 1.04 ± 0.027 | 1.24 ± 0.076 | 1.34 ± 0.2 | 0.962 ± 0.21 | 0.949 ± 0.22 |
| C33A CERVIX | 1.08 ± 0.039 | 1 ± 0.057 | 1.37 ± 0.12 | 1.04 ± 0.11 | 1.1 ± 0.015 | 0.84 ± 0.025 | 0.578 ± 0.044 | 0.349 ± 0.006 | 0.753 ± 0.059 | 0.772 ± 0.05 | 0.976 ± 0.063 | 1.07 ± 0.15 | 0.983 ± 0.098 | 1.02 ± 0.05 | 0.834 ± 0.059 | 0.868 ± 0.044 |
| MDAMB231 BREAST | 0.93 ± 0.033 | 0.937 ± 0.027 | 0.956 ± 0.022 | 0.946 ± 0.031 | 0.986 ± 0.021 | 0.989 ± 0.029 | 0.874 ± 0.02 | 0.746 ± 0.039 | 0.961 ± 0.034 | 0.954 ± 0.035 | 0.978 ± 0.022 | 0.969 ± 0.012 | 0.988 ± 0.034 | 0.997 ± 0.025 | 0.96 ± 0.026 | 0.944 ± 0.014 |
| ASKA SYNOVIAL | 0.958 ± 0.03 | 0.93 ± 0.014 | 1.04 ± 0.024 | 0.917 ± 0.062 | 1.16 ± 0.077 | 1.09 ± 0.059 | 0.933 ± 0.1 | 0.721 ± 0.047 | 1.01 ± 0.051 | 0.966 ± 0.037 | 1.05 ± 0.017 | 0.59 ± 0.051 | 1.15 ± 0.13 | 1.07 ± 0.065 | 1.14 ± 0.095 | 0.678 ± 0.079 |
| DU4475 BREAST | 0.819 ± 0.11 | 0.797 ± 0.088 | 0.782 ± 0.099 | 0.742 ± 0.15 | 0.976 ± 0.12 | 0.919 ± 0.045 | 0.79 ± 0.18 | 0.596 ± 0.13 | 0.806 ± 0.11 | 0.938 ± 0.086 | 0.832 ± 0.098 | 0.992 ± 0.052 | 0.958 ± 0.074 | 0.907 ± 0.089 | 0.965 ± 0.11 | 0.933 ± 0.046 |
| NY BONE | 0.892 ± 0.042 | 0.905 ± 0.031 | 0.998 ± 0.027 | 0.956 ± 0.028 | 0.965 ± 0.052 | 0.955 ± 0.01 | 0.825 ± 0.034 | 0.69 ± 0.009 | 0.886 ± 0.021 | 0.887 ± 0.029 | 0.943 ± 0.035 | 0.933 ± 0.023 | 0.93 ± 0.0093 | 1.01 ± 0.022 | 0.924 ± 0.026 | 0.884 ± 0.039 |
| HOSMNG BONE | 0.92 ± 0.04 | 0.978 ± 0.014 | 1.003 ± 0.0067 | 1.01 ± 0.055 | 1.08 ± 0.12 | 1.11 ± 0.1 | 1.04 ± 0.025 | 1.11 ± 0.016 | 1.02 ± 0.035 | 1.01 ± 0.023 | 1.02 ± 0.041 | 1.05 ± 0.033 | 1.11 ± 0.054 | 1.18 ± 0.088 | 1.15 ± 0.062 | 1.09 ± 0.032 |
| HCC202 BREAST | 0.939 ± 0.12 | 0.93 ± 0.18 | 0.867 ± 0.21 | 0.682 ± 0.011 | 0.602 ± 0.19 | 0.494 ± 0.053 | 0.333 ± 0.057 | 0.177 ± 0.051 | 0.968 ± 0.098 | 0.983 ± 0.18 | 0.865 ± 0.21 | 0.97 ± 0.34 | 1.1 ± 0.043 | 0.86 ± 0.12 | 0.999 ± 0.25 | 0.623 ± 0.085 |
| T47D BREAST | 0.926 ± 0.051 | 0.898 ± 0.024 | 0.922 ± 0.058 | 0.899 ± 0.037 | 0.973 ± 0.021 | 0.96 ± 0.012 | 0.893 ± 0.015 | 0.874 ± 0.031 | 0.9561 ± 0.0072 | 0.988 ± 0.044 | 0.983 ± 0.021 | 0.894 ± 0.035 | 1.1 ± 0.015 | 1.02 ± 0.036 | 1.03 ± 0.047 | 0.999 ± 0.041 |
| SG32 HEADNECK | 0.647 ± 0.084 | 0.826 ± 0.11 | 0.778 ± 0.12 | 0.839 ± 0.094 | 0.786 ± 0.15 | 0.703 ± 0.14 | 0.577 ± 0.09 | 0.501 ± 0.031 | 1.21 ± 0.56 | 0.976 ± 0.13 | 0.988 ± 0.033 | 0.794 ± 0.073 | 1.16 ± 0.17 | 1 ± 0.3 | 1.01 ± 0.044 | 1.09 ± 0.26 |
| HS578T BREAST | 0.851 ± 0.12 | 0.857 ± 0.1 | 0.873 ± 0.066 | 0.785 ± 0.038 | 1.04 ± 0.14 | 1 ± 0.11 | 0.918 ± 0.11 | 0.738 ± 0.14 | 0.974 ± 0.073 | 1.05 ± 0.041 | 1.03 ± 0.056 | 0.979 ± 0.091 | 1.15 ± 0.096 | 1.02 ± 0.28 | 1.01 ± 0.053 | 0.991 ± 0.085 |
| A549 LUNG | 0.915 ± 0.018 | 0.909 ± 0.018 | 0.93 ± 0.014 | 0.873 ± 0.01 | 0.955 ± 0.046 | 0.965 ± 0.026 | 0.9707 ± 0.0042 | 0.948 ± 0.05 | 0.971 ± 0.011 | 0.941 ± 0.029 | 0.978 ± 0.011 | 0.934 ± 0.032 | 1 ± 0.038 | 1.01 ± 0.015 | 1.01 ± 0.033 | 0.983 ± 0.04 |
| SUM159 BREAST | 0.973 ± 0.011 | 0.961 ± 0.028 | 0.948 ± 0.028 | 0.9347 ± 0.0076 | 0.9437 ± 0.0046 | 0.942 ± 0.022 | 0.916 ± 0.012 | 0.9197 ± 0.009 | 1.01 ± 0.034 | 1.005 ± 0.0052 | 1.01 ± 0.011 | 0.996 ± 0.01 | 1.01 ± 0.013 | 1.014 ± 0.0025 | 1.02 ± 0.015 | 0.9937 ± 0.0058 |
| RDES SOFT TISSUE | 0.774 ± 0.16 | 0.858 ± 0.12 | 0.707 ± 0.049 | 0.713 ± 0.19 | 0.903 ± 0.063 | 1.06 ± 0.14 | 1.09 ± 0.032 | 0.921 ± 0.21 | 1.25 ± 0.1 | 1.07 ± 0.035 | 1.11 ± 0.064 | 1.15 ± 0.11 | 1.2 ± 0.086 | 1.12 ± 0.21 | 1.38 ± 0.074 | 1.25 ± 0.19 |
| 143B BONE | 1.05 ± 0.044 | 1.04 ± 0.057 | 1.05 ± 0.038 | 1.06 ± 0.061 | 1.08 ± 0.047 | 1.07 ± 0.039 | 1.04 ± 0.067 | 0.984 ± 0.073 | 1.07 ± 0.061 | 1.1 ± 0.1 | 1.09 ± 0.086 | 1.09 ± 0.088 | 1.13 ± 0.12 | 1.13 ± 0.11 | 1.11 ± 0.11 | 1.1 ± 0.093 |
